Data from US6686379B2, “Salt form of pantoprazole” (Altana Pharma AG, priority 1998, dated 2004).

Assay: storage stability of the solid salt forms at 90° C. for 4 days (discoloration, decomposition)
Type: physicochemical

| discoloration or decomposition (4 days at 90° C.) | stability (4 days at 90° C.) | SMILES | stability properties in comparison with other forms (compared with pantoprazole itself, pantoprazole sodium sesquihydrate and pantoprazole sodium monohydrate) | formation of decomposition products (4 days at 90° C.) |
| --- | --- | --- | --- | --- |
| almost no discoloration or decomposition | completely stable | COc1ccnc(C[S+]([O-])c2nc3cc(OC(F)F)ccc3[n-]2)c1OC.COc1ccnc(C[S+]([O-])c2nc3cc(OC(F)F)ccc3[n-]2)c1OC.O.O.[Mg+2] (centres unmarked) [pantoprazole magnesium dihydrate] | very considerably improved stability properties | – |
| turn brown-red | – | COc1ccnc(C[S+]([O-])c2nc3ccc(OC(F)F)cc3[nH]2)c1OC (centres unmarked) [pantoprazole sodium sesquihydrate, sodium[5-[difluoromethoxy]-2-[[3,4-dimethoxy-2-pyridinyl]methyl]sulfinyl]-1H-benzimidazolide]sesquihydrate, reference compound] | – | considerable amounts of decomposition products |
